Experiment [1] has as its target Tyrosyl-DNA phosphodiesterase 1 (Homo sapiens, UniProt Q9NUW8). Nature of the experiment: Inhibition of recombinant TDP1 (unknown origin) assessed as increase in fluorescence.
For experiment [2], the system named is HepG2. Nature of the experiment: Cytotoxicity against human HepG2 cells assessed as reduction In cell number after 72 hrs by MTT assay. The experiment is classed as functional. Conditions: HepG2, 72 h. Background: Tetrazolium assays rely on reduction of a dye to a coloured formazan, in cell work by metabolically active cells.
The subject of experiment [3] is MCF7. As to the kind of experiment: Induction of apoptosis in human MCF7 cells assessed as apoptotic DNA fragments at 100 uM after 72 hrs by DNA gel electrophoresis assay. The experiment is classed as functional, cell-based.
Experiment [4] concerns MCF7. Nature of the experiment: Induction of apoptosis in human MCF7 cells assessed as P1 population at 100 uM after 24 hrs by annexin V-FITC/propidium iodide staining-based FACS flow cytometric analysis relative to control. The experiment is classed as functional. On the technique in general: A flow cytometer gives signals particle by particle.
For experiment [5], the system named is MCF7. As to the kind of experiment: Cytotoxicity against human MCF7 cells assessed as reduction In cell number after 72 hrs by MTT assay. The experiment is classed as functional. The following applies: MCF7, 72 h.
In experiment [6] the test system is MCF7. As to the kind of experiment: Induction of apoptosis in human MCF7 cells assessed as P1 population at 200 uM after 48 hrs by annexin V-FITC/propidium iodide staining-based FACS flow cytometric analysis relative to control. The experiment is classed as functional.
In experiment [7] the test system is MCF7. As to the kind of experiment: Induction of apoptosis in human MCF7 cells assessed as P1 population at 200 uM after 24 hrs by annexin V-FITC/propidium iodide staining-based FACS flow cytometric analysis relative to control. The experiment is classed as functional.
The test system of experiment [8] is MCF7. As to the kind of experiment: Induction of apoptosis in human MCF7 cells assessed as P2 population at 200 uM after 48 hrs by annexin V-FITC/propidium iodide staining-based FACS flow cytometric analysis (reference value: 13.5%). The experiment is classed as functional.
Experiment [9] has as its system MCF7. Nature of the experiment: Induction of apoptosis in human MCF7 cells assessed as P2 population at 100 uM after 48 hrs by annexin V-FITC/propidium iodide staining-based FACS flow cytometric analysis (reference value: 13.5%). The experiment is classed as functional.
Experiment [10] concerns MCF7. As to the kind of experiment: Induction of apoptosis in human MCF7 cells assessed as P1 population at 100 uM after 48 hrs by annexin V-FITC/propidium iodide staining-based FACS flow cytometric analysis relative to control. The experiment is classed as functional.
Experiment [11] relates to HepG2. As to the kind of experiment: Cytotoxicity against human HepG2 cells assessed as condensation of nuclei, shrinkage of the cytoplasm, convolution of outlines, budding and formation of apoptotic bodies at 200 uM after 24 hrs by light microscopy. The experiment is classed as functional, cell-based.
Experiment [12] deals with HepG2. Nature of the experiment: Cytotoxicity against human HepG2 cells assessed as condensation of nuclei, shrinkage of the cytoplasm, convolution of outlines, budding and formation of apoptotic bodies at 40 uM after 24 hrs by light microscopy. The experiment is classed as functional, cell-based.
The test system of experiment [13] is MCF7. Nature of the experiment: Cytotoxicity against human MCF7 cells assessed as condensation of nuclei, shrinkage of the cytoplasm, convolution of outlines, budding and formation of apoptotic bodies at 200 uM after 24 hrs by light microscopy. The experiment is classed as functional, cell-based.
Experiment [14] deals with MCF7. As to the kind of experiment: Cytotoxicity against human MCF7 cells assessed as condensation of nuclei, shrinkage of the cytoplasm, convolution of outlines, budding and formation of apoptotic bodies at 40 uM after 24 hrs by light microscopy. The experiment is classed as functional, cell-based.

The source made the active and inactive calls. No cut-off for these calls is given here.

Tyrosyl-DNA phosphodiesterase 1, sequence (Q9NUW8 whole entry): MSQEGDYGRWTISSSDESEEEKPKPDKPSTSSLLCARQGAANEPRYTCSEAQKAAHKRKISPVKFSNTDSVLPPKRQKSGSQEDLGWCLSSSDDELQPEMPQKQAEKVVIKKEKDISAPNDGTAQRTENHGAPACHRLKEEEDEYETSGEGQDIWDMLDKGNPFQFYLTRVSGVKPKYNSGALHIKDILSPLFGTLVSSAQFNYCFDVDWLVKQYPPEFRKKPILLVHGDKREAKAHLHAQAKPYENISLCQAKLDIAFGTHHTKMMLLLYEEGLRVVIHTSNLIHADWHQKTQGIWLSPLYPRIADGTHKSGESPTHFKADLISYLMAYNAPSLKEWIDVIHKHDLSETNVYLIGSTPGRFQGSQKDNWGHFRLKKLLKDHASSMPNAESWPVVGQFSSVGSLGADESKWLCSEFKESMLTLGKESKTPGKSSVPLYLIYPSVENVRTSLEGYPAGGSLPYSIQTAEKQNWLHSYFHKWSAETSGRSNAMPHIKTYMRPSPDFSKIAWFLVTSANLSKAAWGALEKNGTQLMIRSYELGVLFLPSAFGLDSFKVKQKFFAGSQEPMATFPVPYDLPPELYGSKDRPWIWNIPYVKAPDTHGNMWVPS

`O=C(CCN1CCCCC1)Nc1cc(C(F)(F)F)cc2c1SSSSS2`: the IC50 in experiment [1] worked out at 3.66 µM.
The same measure, in the same setting: the same measure for `O=C(CN1CCOCC1)Nc1cc(C(F)(F)F)cc2c1SSSSS2`: 1.62 µM.
Turning to `Nc1cc(C(F)(F)F)cc2c1SSSSS2`, the CC50 with HepG2 [2] is 26.6 µM; in the experiment on MCF7 [5] it was 14 µM. Moreover, the result in the experiment on MCF7 [3] was Active. For the same compound, the Activity in the experiment with MCF7 [4] worked out at 0%; with MCF7 [6] it was 0.8%; in the experiment on MCF7 [7] it was 0%. Moreover, the IC50 in experiment [1] is > 10 µM.
On to `O=C(CCN1CCOCC1)Nc1cc(C(F)(F)F)cc2c1SSSSS2`, for which the IC50 in [1] stood at 1.3 µM.
The same measure, in the same setting: to `O=C(CN1CCCC1)Nc1cc(C(F)(F)F)cc2c1SSSSS2` belongs 3.7 µM.
`CCCCN(CCCC)CC(=O)Nc1cc(C(F)(F)F)cc2c1SSSSS2`: the CC50 is > 100 µM in the experiment on HepG2 [2] and 28.1 µM in the experiment on MCF7 [5]. Moreover, in the experiment with MCF7 [3], the result was Active. In [1], the IC50 was found to be 0.22 µM. The Activity came to 10.5% with MCF7 [6] and 1.51% in the experiment on MCF7 [7].
Regarding `O=C(CN1CCCCC1)Nc1cc(C(F)(F)F)cc2c1SSSSS2`, the CC50 came to 24.4 µM in the experiment on HepG2 [2] and 19.3 µM in the experiment on MCF7 [5]. Also, in the experiment with MCF7 [3], the outcome was Active. The figures for the Activity in the experiment on MCF7 [4], with MCF7 [6] and in the experiment on MCF7 [7] were 0%, 0.9% and 0%, respectively. For the same compound, the IC50 in experiment [1] is 1.28 µM.
As to `O=C(CN1CCCCC1)Nc1ccccc1`, the IC50 in [1] is > 10 µM.
With `O=C(Nc1cc(C(F)(F)F)cc2c1SSSSS2)C(F)(F)F`, the Activity with MCF7 [8] was found to be 33.6%; in the experiment with MCF7 [9], 23%; in the experiment with MCF7 [10], 9.5%; with MCF7 [4] it was 1.2%; in the experiment with MCF7 [6], 20.1%; in the experiment on MCF7 [7], 8.3%. The outcome in the experiment with MCF7 [3] was Active. In addition, in the experiment on MCF7 [5], the CC50 is 21 µM. Further, the IC50 in experiment [1] was > 10 µM. For the same compound, the inhibition result with HepG2 [11], with HepG2 [12], in the experiment with MCF7 [13] and in the experiment with MCF7 [14] was “Active” each time.
Consider `O=C(CCN1CCCC1)Nc1cc(C(F)(F)F)cc2c1SSSSS2`, for which the IC50 in [1] stood at 6.03 µM.
Regarding `O=C(CN1CCCC1)Nc1ccccc1`, the IC50 in experiment [1] was > 10 µM.

The term IC50 denotes the concentration at which inhibition is half-maximal. Usually CC50 stands for the concentration giving 50% cytotoxicity.

Values taken from ChEMBL document CHEMBL3400093, “Synthesis and biological evaluation of novel tyrosyl-DNA phosphodiesterase 1 inhibitors with a benzopentathiepine moiety” (Bioorg Med Chem, 2015).
